Columns and labels:
Gβγ-GRK2 interaction = target: T1, Gβγ-GRK2 interaction (UniProt P54311+P63212); experiment: GRK2 binding to biotinylated Gβ1γ2 on streptavidin agarose
T1 construct: made in house; host or cells: bGβ1γ2: Sf9 insect cells

PLCβ2 = experiment: Gβ1γ2-dependent activation of purified PLCβ2; format: biochemical
Method: (§1) Purified PLCβ2 (0.25 ng) was assayed in the presence (▴) or absence (▪) of 100 nM purified Gβ1γ2. […] Assays contained 10 ng of purified p101/p110 PI3Kγ heterodimer with or without 100 nM purified Gβ1γ2. Left panel: (▴) 100 nM Gβ1γ2 or (▪) no βγ. […] M119 or M201 and 25 nM purified GRK2 were added simultaneously to 250 nM biotinylated Gβ1γ2 (bGβ1γ2) immobilized on streptavidin agarose. GRK2 was detected with antibody to GRK2. Data are representative (mean ±SEM, except D) repeated at least three times each. […] 30 nM bGβ1γ2 was incubated with either 30 nM PLCβ2 or PLCβ3 in the presence or absence of M119 or M201 for 16 h at 4° C. before precipitation with avidin agarose and detection with PLCβ2,or Gβ antibodies. […] Same as 4E with PLCβ3.
(§2) The ability of NSC119910 analogs to selectively modulate activation PLC-β2 and -β3 was analyzed. In this assay, PLC-β2 and PLC-β3 were purified and PLC enzymatic activity was measured in the presence or absence of purified βy and in the presence or absence of analog.
(§3) Nevertheless, M119 and M201 were tested in in vitro reconstitution assays of Gβγ-dependent activation of PLCβ2, PLCβ3 and PI3Kγ and binding to GRK2. […] These are only two of multiple diverse compounds identified, indicating potential for multiple modes of Gβγ-dependent target modulation by these small molecules.

PLCβ3 = experiment: Gβ1γ2-dependent activation of purified PLCβ3; format: biochemical; conditions: for effect on Gβ1γ2-dependent activation of PLCβ3: result in words
Method: as §1, §2, §3

PI3Kγ = experiment: Gβ1γ2-dependent activation of purified p101/p110 PI3Kγ; format: biochemical; conditions: for effect on Gβ1γ2-dependent activation of PI3Kγ: result in words
Method: as §1, §3

[1] = tested on: GFP-PHAkt translocation (PI3Kγ activation) in HL60 cells; experiment: fMLP-dependent GFP-PH-Akt translocation in differentiated HL60 cells; format: cell-based, human; conditions: 10 μM compound; result in words
[2] = Toxicity on repeated daily dosing in animals; format: in vivo
[3] = tested on: differentiated HL60 cells; experiment: GM-CSF-induced chemotaxis of differentiated HL60 cells (Boyden chamber); format: cell-based, human; conditions: 10 μM compound, 1 μM GM-CSF; result in words
Method: (§4) Differentiated HL60 cells (200 k) were pretreated with 10 μM concentrations of the indicated compound, challenged with 250 nM fMLP, and assayed for chemotaxis in a Boyden chamber for 1 h at 37° C. […] Chemotaxis was quantified as above by subtracting out background cells (0-10 cells) in the absence of chemoattractant to obtain total transmigrated cells (−100 cells GM-CSF+vehicle) and represented as the percentage of GM-CSF-treated control cells. No statistically significant difference from control was seen by ANOVA. […] Primary human neutrophils were isolated from whole blood to ≧80% purity. […] Chemotaxis was quantified as above by subtracting out background cells to obtain total transmigrated cells and represented as the percentage of fMLP-treated control cells. […]
(§5) Chemotaxis was assayed using a Boyden chamber (Neuro Probe, Gaithersburg, Md.) using 3-μm polyvinylpyrrolidone-free polycarbonate filters (Neuro Probe). […] Chemotactic HL60 cells were scored by counting three microscope fields and subtracting the number of cells from fMLP wells as background. […] For all the small molecules, effects of the compounds on chemokinesis was analyzed by measuring chemotaxis in the presence of 250 nM fMLP in both the upper and lower chambers of the Boyden Chamber and measuring changes in transwell migration. […]

[4] = tested on: differentiated HL60 cells; experiment: Chemokinesis (fMLP in upper and lower Boyden chambers); format: cell-based, human; conditions: fMLP in both chambers; result in words
Method: Same as A with purified human neutrophils.
Chemotaxis was assayed using a Boyden chamber (Neuro Probe, Gaithersburg, Md.) using 3-μm polyvinylpyrrolidone-free polycarbonate filters (Neuro Probe). HL60 cells (differentiated for 4 days) were washed with and resuspended in HBSS containing 1% bovine serum albumin to a final concentration of 1×10^6 cells/ml. Primary human neutrophils were washed and resuspended in NaCl buffer (140 mM NaCl, 4 mM KCl, 10 mM D-glucose, 10 mM HEPES, pH 7.4, 1 mM MgCl2, and 1 mM CaCl2) to a final concentration of 1×10^6 cells/mi. Chemoattractant [1 μM granulocyte-macrophage-colony stimulating factor (GM-CSF), 10 nM IL-8, or 250 nM fMLP; Sigma Aldrich] was added to the bottom chamber in HBSS containing 1% bovine serum albumin. Cell suspensions (0.2×10^6 cells/well) were added to the top wells of the Boyden chamber and allowed to migrate for 1 h at 37° C. […] Chemotactic HL60 cells were scored by counting three microscope fields and subtracting the number of cells from fMLP wells as background. […] For all the small molecules, effects of the compounds on chemokinesis was analyzed by measuring chemotaxis in the presence of 250 nM fMLP in both the upper and lower chambers of the Boyden Chamber and measuring changes in transwell migration. […]

[5] = tested on: primary human neutrophils; experiment: IL-8-induced chemotaxis of primary human neutrophils (Boyden chamber); format: cell-based; conditions: 10 μM compound, 10 nM IL-8; result in words
Method: as §4, §5

PLCβ2-bGβ1γ2 interaction = target: T2, PLCβ2-bGβ1γ2 interaction (UniProt P54311+P63212); experiment: PLCβ2 binding to biotinylated Gβ1γ2 (avidin agarose precipitation); conditions: M119 10 μM, M201 1 μM; result in words
T2 construct: made in house; host or cells: bGβ1γ2: Sf9 insect cells
T2 sequence (P54311 whole entry): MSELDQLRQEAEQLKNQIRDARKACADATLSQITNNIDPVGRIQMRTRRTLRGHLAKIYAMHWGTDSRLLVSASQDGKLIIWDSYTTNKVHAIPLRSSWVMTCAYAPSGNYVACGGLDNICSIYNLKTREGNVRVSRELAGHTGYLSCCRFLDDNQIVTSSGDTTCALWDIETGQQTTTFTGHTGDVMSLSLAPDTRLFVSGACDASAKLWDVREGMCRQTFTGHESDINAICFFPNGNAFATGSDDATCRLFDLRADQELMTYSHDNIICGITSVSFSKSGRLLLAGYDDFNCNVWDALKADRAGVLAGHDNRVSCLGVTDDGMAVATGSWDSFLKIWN
T2 sequence (P63212 2-68 limits assumed): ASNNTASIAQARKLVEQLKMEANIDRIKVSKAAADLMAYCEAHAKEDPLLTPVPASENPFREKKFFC
Method: as §1

T1 sequence (P54311 whole entry): as the sequence (P54311 whole entry) above
T1 sequence (P63212 2-68 limits assumed): as the sequence (P63212 2-68 limits assumed) above

Compound	effect on GRK2 binding to bGβ1γ2 (Gβγ-GRK2 interaction; result in words)	effect on Gβ1γ2-dependent activation of PLCβ2 (PLCβ2; result in words)	effect on Gβ1γ2-dependent activation of PLCβ3 (PLCβ3)	effect on Gβ1γ2-dependent activation of PI3Kγ (PI3Kγ)	effect on fMLP-dependent translocation of GFP-PHAkt to the membrane [1]	toxicity ([2]; 100 mg/kg/day intraperitoneal, one week)	IC50 (Gβγ-GRK2 interaction)	IC50 (PLCβ2; read-out: IC50 for attenuation of Gβ1γ2-dependent activation of PLCβ2)	IC50 (PLCβ3; Table 19, effector IC50, read-out: PLCb3)	effect on GM-CSF-induced chemotaxis [3]	IC50 (PI3Kγ; Table 19, effector IC50, read-out: PI 3-Kg)	effect on chemokinesis [4]	effect on IL-8 regulated chemotaxis [5]	effect on direct binding of bGβ1γ2 to PLCβ2 (PLCβ2-bGβ1γ2 interaction)	toxicity in intact animals and histology of lung, liver, brain, heart and kidney ([2]; 10, 30 and 100 mg/kg/day daily injections, two weeks)
O=C(O)C1CCCCC1c1c2ccc(=O)cc-2oc2cc(O)ccc12 (stereo not drawn) [Compound M119B]	did not have effects	did not have effects	did not have effects	did not have effects											
O=C(O)C1CCCCC1c1c2ccc(=O)c(O)c-2oc2c(O)c(O)ccc12 (stereo not drawn) [Compound M119, cyclohexanecarboxylic acid, 2-(4,5,6-trihydroxy-3-oxo-3H-xanthen-9-yl)-(9cl)]			attenuated	attenuated	inhibited	no overt toxicity was observed	~5 µM	3 µM	3 µM	Neither M119 nor gallein blocked	8 µM	Neither M119 nor gallein had any effects	blocked	inhibited	
O=C(O)c1ccccc1-c1c2ccc(=O)c(O)c-2oc2c(O)c(O)ccc12 (racemic) [Gallein]					inhibited					Neither M119 nor gallein blocked		Neither M119 nor gallein had any effects	blocked		nor any overt toxicity

— patent publication US8975259B2, “Compositions and methods for inhibiting G protein signaling” (University of Rochester, priority 2007, dated 2015)
